Experimental data: paper PMC7794356, “Streamlined copper defenses make Bordetella pertussis reliant on custom-made operon” (Communications Biology, 2021)

Target: GorB (BP1729) (Bordetella pertussis, UniProt Q7VXM2)
Test: NADPH oxidation followed at […] nm
Type: biochemical
Conditions: 0.3 mM NADPH, 8 mM GSH; GSSG generated in situ from GSH by H2O2 (0.1-2 mM); 0.1 M sodium/potassium phosphate pH 7.6, 25 °C

Sequence of GorB (BP1729) (Q7VXM2 entry or part of it): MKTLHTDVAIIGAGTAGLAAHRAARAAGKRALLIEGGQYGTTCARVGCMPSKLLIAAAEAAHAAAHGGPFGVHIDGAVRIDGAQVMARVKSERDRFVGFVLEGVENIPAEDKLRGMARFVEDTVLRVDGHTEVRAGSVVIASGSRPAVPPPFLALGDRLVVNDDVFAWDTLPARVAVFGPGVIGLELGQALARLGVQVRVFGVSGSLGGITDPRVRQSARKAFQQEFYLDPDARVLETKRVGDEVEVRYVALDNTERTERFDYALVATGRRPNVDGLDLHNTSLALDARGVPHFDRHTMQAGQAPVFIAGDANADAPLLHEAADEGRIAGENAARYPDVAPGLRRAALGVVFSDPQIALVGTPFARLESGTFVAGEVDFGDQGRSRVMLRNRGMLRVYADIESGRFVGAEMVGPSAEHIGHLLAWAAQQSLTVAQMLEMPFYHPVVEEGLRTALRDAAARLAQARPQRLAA

## NC(=O)C1=CN([C@@H]2O[C@H](COP(=O)(O)OP(=O)(O)OC[C@H]3O[C@@H](n4cnc5c(N)ncnc54)[C@H](OP(=O)(O)O)[C@@H]3O)[C@@H](O)[C@H]2O)C=CC1 [NADPH]
  NADPH oxidation followed at 340 nm: Oxidation of NADPH by recombinant GorB over time
